Assays:
[1] = Preliminary solubility study; type: physicochemical; settings: water, DMSO, and PBS
B16F10 cells = experiment: B16F10 syngeneic model in C57BL/6 mice; type: in vivo
Procedure: C57BL/6 mice were inoculated with B16F10 cells. Female C57BL/6 mice aged 4-5 weeks were inoculated with B16F10 cells (2×10^5 cells in 0.05 ml per mouse) in the right flank. When the average tumor size of the mice reached 100 mm^3, the mice were divided into two groups (N=6). […] The treatment was intraperitoneally administered daily for 14 consecutive days.
The treatment was intraperitoneally administered daily for 12 consecutive days. At the end of the treatment, the mice were sacrificed and tumor and blood samples were collected in anticoagulation tubes. Single cell separation was performed for each sample and then stained for FACS analysis. For cell surface staining, CD45-PerCP-Cy5, CD4-FITC, CD8-PE-Cy7, and CD25-PE were used. The tumor samples were then stained with either an anti-CD4 antibody or an anti-CD8 antibody to assess the presence of T cells in the tumor samples. The tumor samples were also stained with an anti-CD194 antibody and anti-CD196 antibody to assess the presence of T helper 17 cells in the tumor samples.
The process of constructing WX-039 is described in Example 10. C57BL/6 mice were inoculated with B16F10 cells. […] The treatment was intraperitoneally administered daily for 12 consecutive days. At the end of the treatment, the mice were sacrificed and tumor and blood samples were collected in anticoagulation tubes. Tumor cells collected from the experiment were stained as described above and also with anti-CD205 antibody to assess whether WX compounds are capable of modulating dendritic cells.
The ability of WX-039 to suppress tumor growth was assessed in the animal model described in Example 5.4. Briefly, C57BL/6 mice were inoculated with B16 cells. Female C57BL/6 mice aged 5 weeks were inoculated with B16F10 cells (2×10^5 cells in 0.05 ml per mouse) in the right flank. When the average tumor size of the mice reached 100 mm^3, the mice were divided into two groups (N=3). The first group was administered 60 mg/kg WX-039 while the second group was treated with a vehicle. The treatment was intraperitoneally administered daily for 12 consecutive days.

[2] = Preclinical summary of multiple animal models; type: in vivo
From the text: The in vivo efficacy of WX-024 was confirmed in multiple animal models.

[3] = 20 mg/kg WX-024 or 60 mg/kg WX-039 i.p. daily, 12 days

CC[C@H](C)[C@@H]1NC(=O)[C@@](C)(NC(=O)[C@H](CCCNC(=N)N)NC(=O)[C@H](CC(C)C)NC(=O)[C@@H](NC(=O)[C@H](CCC(N)=O)NC(=O)[C@H](CC(C)C)NC(C)=O)[C@@H](C)O)CCCC=CCCC[C@@](C)(C(=O)N[C@@H](CC(C)C)C(=O)N[C@@H](Cc2ccc3ccccc3c2)C(N)=O)NC(=O)[C@H](CCCNC(=N)N)NC(=O)[C@H](CCC(N)=O)NC1=O [WX-024, LQTLRXaa1IQRXaa2L]
solubility [1]: ≥ 1000 µg/mL | T helper 17 cells in tumor (B16F10 cells; [3]): more effective than WX-039 | dendritic cells (CD205+) in tumor (B16F10 cells; [3]): significantly reduced | CD4+ positive cells in tumor samples (B16F10 cells; 25 mg/kg i.p. daily, 12 days): increased | CD8+ positive cells in tumor samples (B16F10 cells; 25 mg/kg i.p. daily, 12 days): increased | tumor growth compared to vehicle (B16F10 cells; 25 mg/kg i.p. daily, 14 days): effectively reduced tumor growth | drug-related toxicity ([2]; animals chronically dosed): no particular drug-related toxicity was observed | average tumor growth inhibition rate ([2]; multiple animal models, administered for 3-6 weeks): 70-80%

Reference: patent US12264185B2, “Stabilized BCL9 peptides for treatment of aberrant Wnt signaling” (WntRx Pharmaceuticals Inc., priority 2015, dated 2025)
